Results taken from US8003324B2, “Modulation of sodium channels by nicotinamide adenine dinucleotide” (U.S. Department of Veterans Affairs, priority 2007, dated 2011).
Several values for one entry are separate records, joined by “and”; a condition that tells them apart may be missing. Identical values can stand only once. Entries after “also recorded” stand apart in the source; their conditions may differ.

What was measured:
SCN5A^+/− mouse heart = assay: Ventricular arrhythmogenesis in Langendorff-perfused SCN5A+/- mouse heart (MAP recording, PES)
Description: Hearts from mice genetically modified to ablate one allele of SCN5A were isolated and Langendorff-perfused (3 ml/min at 37° C.) with Krebs-Henseleit solution (in mM: 119 NaCl, 25 NaHCO3, 4 KCl, 1.2 KH2PO4, 1 MgCl2, 1.8 CaCl2, 10 glucose and 2 sodium pyruvate) and allowed to beat intrinsically for 10 min. Monophasic action potentials (MAPs) were recorded using a MAP electrode (Harvard Apparatus, UK) placed on left ventricular epicardial surface. MAP signals were amplified, band-pass filtered (0.5 Hz to 1 kHz: Neurolog NL900D), digitized (1401, Cambridge Electronic Design, Cambridge, UK) and acquired using Spike 2.5 (Cambridge Electronic Design) at a 5 KHz sampling rate. A custom made, paired-platinum electrode was placed on right ventricle and used to deliver 2 ms ([…], twice the threshold) stimuli (GRASS S48 stimulator) to pace the heart at different intervals. The standard pacing protocol consisted of 8 Hz stimuli (basic cycle length, BCL 125 ms) and was delivered for 20 min to measure MAPs. This was followed by programmed electrically stimulation (PES) consisting of trains of eight paced stimuli at 125 ms BCL (S1) followed by an extra stimulus (S2). […] PES was repeated three times before and three times after the drug application in each heart. NAD^+ was perfused for 20 min to assess its anti-arrhythmic effect. Selected recordings were imported to Microsoft Excel for further statistical analysis. Average APD90 (action potential duration) was calculated by averaging 240 MAPs recorded at three different locations on each heart (80 MAPs at each location). These studies were approved by the Institutional Review Board.

[1] = test system: human SCN5A fused at the C-terminus to GFP (SCN5A-GFP fusion); assay: Na+ channel tracking (confocal microscopy of SCN5A-GFP fusion in HEK cells); format: cell-based
Description: An SCN5A constructed fused at the C-Terminus to GFP (SCN5A-GFP fusion) was stably transfected in HEK cells and grown on glass bottom 14 mm microwell dishes (MatTek Corporation, Ashland, Mass., USA). A Nikon (Melville, N.Y.) Diaphot 200 inverted microscope with a fluorescent lamp was used to identify cells expressing GFP. Cells expressing GFP were transiently co-transfected with MT GPD1-L or incubated overnight with NADH. Fixation was performed by washing the coverslip three times with DPBS (Dulbecco's Phosphate Buffered Saline 1× of GIBCO) and exposing them to 4% paraformaldehyde in PBS at pH 7.4. […] GFP fluorescence was observed using a 507 nm narrow bandpass filter and a 60× oil 1.4 NA objective. Quantification was done using ImageJ software.
For these experiments, a construct of human SCN5A fused at the C-terminus to GFP (SCN5A-GFP fusion) was stably transfected in HEK cells and grown on the glass bottom of 14-mm microwell dishes (MatTek Corporation, Ashland, Mass., USA). […] For imaging Na^+ channels, GFP was excited at 488 nm with an argon ion 30 mW water-cooled laser, and GFP fluorescence was observed using a 507 nm narrow bandpass filter and a 60× oil 1.4 NA objective. Quantification was done using ImageJ software.

HEK 293 cell (SCN5A) = format: cell-based; conditions: human, 24 h
Description: Human embryonic kidney (HEK) cell line was used for all experiments. A HEK cell line stably expressing a SCN5A-IRES-GFP construct as described in our previous study (Arnold et al., Hearth Rhythm 4:46-53 (2007)) was maintained by antibiotic selection using 0.2 mg/mL Geneticin (G-8168, Sigma-Aldrich). Cells were cultured in Dulbecco's modified Eagle's medium (DMEM; ATCC, Manassas, Va.) with 10% fetal calf serum (ATCC) at 37° C. in 60 mm×15 mm cell culture dishes (Corning Incorporated, Corning, N.Y.) until 70-80% confluence. After reaching confluence, cells were exposed to NADH (Sigma, St. Louis, Mo.) or NAD^+ (Sigma) in culture medium for a total of 12-14 h in triplicate. Experiments were repeated three times. After dissociation with 0.125% trypsin-EDTA, 40 μL of 0.4% Trypan-blue (Sigma, St. Louis, Mo.) was added to each well, and a Trypan-blue exclusion viability assay was performed.
As previously described, we maintained a human embryonic kidney (HEK) cell line that stably expresses the human cardiac Na^+ channel (SCN5A) with antibiotic selection using 0.2 mg/mL geneticin (G-8168, Sigma-Aldrich, St. Louis, Mo.) (23). Expression of SCN5A was linked to green fluorescent protein (GFP) expression by an internal ribosomal entry site (SCN5A-IRES-GFP). Cells were cultured in Dulbecco's modified Eagle's medium (DMEM; ATCC, Manassas, Va.) with 10% fetal calf serum (ATCC) at 37° C. in 60 mm×15 mm cell culture dishes (Corning Incorporated, Corning, N.Y.) until 70-80% confluency. Then, cells were exposed to NADH or NAD^+ (both from Sigma-Aldrich) in culture medium for a total of 24 h. After dissociation with 0.125% trypsin-ethylenediaminetetraacetic acid (EDTA), 40 μL of 0.4% Trypan-blue (Sigma) was added to each well of a 6-well plate, and a Trypan-blue exclusion viability assay was performed. SCN5A cells were tolerant of a wide range of NADH or NAD^+ concentrations from 150 to 300 μM (data not shown). […] All NAD(H) containing solutions were made fresh daily.

[2] = target: T1, human cardiac Na^+ channel (SCN5A) (Homo sapiens, UniProt Q14524); assay: Whole-cell patch clamp Na+ current in HEK cells stably expressing SCN5A; format: cell-based; conditions: for effect on peak Na+ current (in words): versus SCN5A cells
T1 construct: expressed in transfected cells
T1 sequence (Q14524 whole entry): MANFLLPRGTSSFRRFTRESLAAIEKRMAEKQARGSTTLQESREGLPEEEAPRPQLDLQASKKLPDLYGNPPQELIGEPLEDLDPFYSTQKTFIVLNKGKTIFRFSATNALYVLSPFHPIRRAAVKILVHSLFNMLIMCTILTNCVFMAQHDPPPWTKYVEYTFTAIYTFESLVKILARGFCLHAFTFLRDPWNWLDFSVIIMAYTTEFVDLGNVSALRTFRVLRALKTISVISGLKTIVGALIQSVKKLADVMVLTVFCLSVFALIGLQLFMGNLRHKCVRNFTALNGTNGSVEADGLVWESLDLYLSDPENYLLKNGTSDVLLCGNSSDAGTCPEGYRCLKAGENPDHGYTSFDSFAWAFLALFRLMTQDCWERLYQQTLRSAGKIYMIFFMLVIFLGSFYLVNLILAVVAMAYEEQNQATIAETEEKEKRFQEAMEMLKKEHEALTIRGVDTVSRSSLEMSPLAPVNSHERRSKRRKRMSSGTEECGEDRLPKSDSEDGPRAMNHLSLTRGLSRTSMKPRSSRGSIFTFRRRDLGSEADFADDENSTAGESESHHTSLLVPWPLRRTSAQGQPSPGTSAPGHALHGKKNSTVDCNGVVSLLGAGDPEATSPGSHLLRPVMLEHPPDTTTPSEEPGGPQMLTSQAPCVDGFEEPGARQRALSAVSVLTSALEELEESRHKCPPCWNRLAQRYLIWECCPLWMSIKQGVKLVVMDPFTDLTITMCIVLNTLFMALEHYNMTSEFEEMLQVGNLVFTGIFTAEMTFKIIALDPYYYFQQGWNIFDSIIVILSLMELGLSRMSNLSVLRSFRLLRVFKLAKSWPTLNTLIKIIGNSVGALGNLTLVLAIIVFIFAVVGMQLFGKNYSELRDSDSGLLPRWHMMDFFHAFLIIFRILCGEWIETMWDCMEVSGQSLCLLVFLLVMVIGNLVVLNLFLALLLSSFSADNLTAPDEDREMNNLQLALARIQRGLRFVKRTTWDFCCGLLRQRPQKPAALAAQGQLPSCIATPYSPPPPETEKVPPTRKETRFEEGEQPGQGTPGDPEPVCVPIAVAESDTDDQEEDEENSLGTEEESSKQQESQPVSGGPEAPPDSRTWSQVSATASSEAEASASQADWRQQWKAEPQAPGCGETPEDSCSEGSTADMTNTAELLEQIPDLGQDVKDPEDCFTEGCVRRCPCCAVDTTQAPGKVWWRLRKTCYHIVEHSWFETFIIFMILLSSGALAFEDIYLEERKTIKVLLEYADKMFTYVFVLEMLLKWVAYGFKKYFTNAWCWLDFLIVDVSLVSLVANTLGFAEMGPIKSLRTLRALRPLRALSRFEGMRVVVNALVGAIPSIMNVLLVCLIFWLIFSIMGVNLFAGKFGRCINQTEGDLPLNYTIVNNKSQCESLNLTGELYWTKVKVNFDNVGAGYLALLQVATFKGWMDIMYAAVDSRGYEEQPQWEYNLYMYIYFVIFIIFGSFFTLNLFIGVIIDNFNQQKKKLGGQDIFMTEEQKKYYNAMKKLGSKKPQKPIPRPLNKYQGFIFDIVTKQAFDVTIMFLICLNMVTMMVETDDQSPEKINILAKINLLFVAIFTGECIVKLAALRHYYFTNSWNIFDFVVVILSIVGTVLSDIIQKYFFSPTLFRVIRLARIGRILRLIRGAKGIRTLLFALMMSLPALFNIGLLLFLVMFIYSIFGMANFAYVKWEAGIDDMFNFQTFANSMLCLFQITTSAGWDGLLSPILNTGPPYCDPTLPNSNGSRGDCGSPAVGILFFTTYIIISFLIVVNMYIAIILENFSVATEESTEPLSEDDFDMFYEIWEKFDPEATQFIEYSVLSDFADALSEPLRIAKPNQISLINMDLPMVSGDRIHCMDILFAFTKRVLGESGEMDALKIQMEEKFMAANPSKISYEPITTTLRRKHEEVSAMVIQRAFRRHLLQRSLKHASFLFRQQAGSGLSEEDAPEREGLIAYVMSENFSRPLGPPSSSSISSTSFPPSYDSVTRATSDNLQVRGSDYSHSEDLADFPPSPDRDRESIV
Description: HEK cells stably transfected with two different Na^+ channel constructs were used, SCN5A-IRES-GFP and SCN5A-GFP fusion constructs. Cloning and establishment of the cell lines has been delineated previously (11). The HEK 293 cell line stably expressing a SCN5A-IRES-GFP construct was maintained by antibiotic selection using Geneticin (G-8168, Sigma-Aldrich) at a concentration of 0.2 mg/mL was used for patch clamp study. GFP was used as a marker to identify cells expressing the cardiac Na^+ channel. The cells were cultured in 6 well plates with Dulbecco's Modified Eagle's medium (DMEM), 10% fetal bovine serum and 1% pen-strep. Cells were stored in a 5% CO2 incubator at 37° C. for 1-2 days. GPD1-L (the A280V mutant or wild-type) was transiently co-transfected into HEK 293 cells. GPD1-L vectors have been described in London et al.
The effects of external NADH or NAD^+ on sodium current were determined by incubating HEK 293 cells overnight (12-14 h) with NADH/NAD^+ (300 μM) added to the media. The effects of internal NADH or NAD^+ (100 μM) on sodium current were tested by adding the compounds to the pipette solution.
Cells expressing GFP were tested with the whole cell patch-clamp technique in voltage-clamp mode to measure Na^+ current levels. For patch-clamping, HEK cells were plated onto plastic coverslips 2-3 h before the recordings. Glass pipettes were pulled on a Sutter Model P-97 horizontal puller to a resistance of 1-2 MΩ. The glass pipettes were filled with a pipette solution containing (in mmol/L): CsCl 80, Cesium Aspartate 80, EGTA 11, MgCl2 1, CaCl2 1, HEPES 10, Na2ATP 5 and pH 7.4 with CsOH. The bath solution consisted of (in mmol/L): NaCl 130, CsCl 5, CaCl2 2, MgCl2 1.2, HEPES 10 and Glucose 5 (titrated to pH 7.4 with CsOH). Once a seal was established, a small amount of suction was applied to obtain the whole cell configuration. A stepped voltage protocol from −100 to +60 mV from a holding potential of −100 mV was applied to establish the presence of voltage-gated Na^+ channels. Currents obtained during steps to −10 mV were used for comparison in determining the relative reduction in sodium current. Cells were tested at 25° C. In all recordings, 80% of the series resistance was compensated, yielding a maximum voltage error of ˜1 mV. Data were sampled at 10 kHz and later filtered at 5 kHz for analysis. Currents were recorded and analyzed with an Axopatch 200B amplifier, Axon Digidata 1230A A/D converter and pClamp software (Molecular Devices Corporation, Sunnyvale, Calif.).
Using HEK 293 cells stably expressing the SCN5A-IRES-GFP construct, we measured the effect of treatments on the Na^+ current. Cells were cultured in 6-well plates in a […] incubator at 37° C. WT or MT GPD1-L was transiently transfected into HEK 293 cells as described previously in London et al. Other treatments included extracellular NADH or NAD^+ (300 μM) for […] or NADH or NAD^+ (100 μM) in the patch pipette solution. Apocynin (100 μM, Sigma) was added to cells 4-6 h prior to treatment with NADH and continuing for the entire extracellular NADH incubation. Na^+ current levels were measured from GFP-expressing cells using the whole-cell patch clamp technique in voltage-clamp mode at room temperature. HEK cells were dissociated by trypsin-EDTA, and replated onto plastic coverslips 2-3 h before the recordings. Glass pipettes were pulled on a Sutter Model P-97 horizontal puller to a resistance of 1-2 MΩ. The glass pipettes were filled with a pipette solution containing (in mM): CsCl 80, cesium aspartate 80, EGTA 11, MgCl2 1, CaCl2 1, HEPES 10, and Na2ATP 5 (adjusted to pH 7.4 with CsOH). The bath solution consisted of (in mM): NaCl 130, CsCl 5, CaCl2 2, MgCl2 1.2, HEPES 10 and Glucose 5 (adjusted to pH 7.4 with CsOH). Once a seal was established, a small amount of suction was applied to obtain the whole-cell configuration. […]

[3] = 100 μM intracellular (pipette solution), at 10 min
[4] = 300 μM extracellular, overnight incubation

With NC(=O)c1ccc[n+]([C@H]2O[C@@H](COP(=O)(O)OP(=O)(O)OC[C@@H]3O[C@H](n4cnc5c(N)ncnc54)[C@H](O)C3O)C(O)[C@H]2O)c1 (stereo partly drawn) [NAD^+, nicotinamide adenine dinucleotide] the “hearts in which PES failed to induce VT” value (SCN5A^+/− mouse heart; SCN5A+/- hearts after 20 min perfusion with 100 μM, VT in 6 out of 6 before) was 5 out of 6, the “reversibility: hearts with PES-induced VTs after removal” value (SCN5A^+/− mouse heart; SCN5A+/- hearts, NAD+ removed) was 4 out of 6 and reversible and the “MAP duration or morphology” value (SCN5A^+/− mouse heart; perfusion for 20 min with 100 μM) was “no significant change”. The APD90 (SCN5A^+/− mouse heart; six SCN5A+/- hearts, 20 min perfusion with 100 μM, BCL 125 ms) was 27.9 ± 1.9 ms, the “effect on Na+ channel protein (GFP fluorescence, in words)” value ([1]; 300 μM overnight, versus control SCN5A-GFP cells) was “increased GFP fluorescence; also recorded: increases Na^+ channel protein” and the “tolerated concentration range (cell viability)” value (HEK 293 cell (SCN5A)) was 150 to 300 µM. The “effect on Na+ current density (in words)” value ([2]; 100 μM in internal (pipette) solution, versus SCN5A) was “significantly higher”, the “increase in Na+ current (peak current)” value [2, 3] was 77% and 66.6% and the “effect on peak Na+ current (in words)” value [2, 4] was “increase in peak current; also recorded: increased sodium current”. The “effect on peak Na+ current (in words)” value ([2]; 300 μM extracellular, overnight incubation, listed as NAD+) was “largely restored peak current”, the “increase in whole cell peak conductance” value ([2]; 300 μM extracellular, overnight, n=9) was 30.3% and the “effect on the Na+ current reduction caused by MT GPD1-L (A280V)” value ([2]; SCN5A cells co-transfected with MT GPD1-L, external NAD+ 300 μM) was “prevented the loss of peak current; also recorded: increased Na^+ current at all activation potential; also recorded: reverses the decrease in peak current; also recorded: largely prevented; also recorded: prevent the reduction in Na^+ current”. The “shift of activation curve” value ([2]; WT SCN5A cells, versus SCN5A cell) was “shift more positive” and the “shift of inactivation curve” value ([2]; versus SCN5A cell) was “more positive”.

In the case of COc1cc(C(C)=O)ccc1O [apocynin, reference compound], the “effect on the NADH-induced reduction of Na+ current” value ([2]; apocynin 100 μM added 4-6 h before and during extracellular NADH incubation) is reported as “abolished the effect of NADH on Na^+ current; also recorded: inhibited the effect of NADH on Na^+ currents”.

In the case of NC(=O)C1=CN([C@@H]2O[C@H](COP(=O)(O)OP(=O)(O)OC[C@H]3O[C@@H](n4cnc5c(N)ncnc54)[C@H](O)[C@@H]3O)[C@@H](O)[C@H]2O)C=CC1 [NADH, nicotinamide adenine dinucleotide], the “reduction in membrane-associated, GFP-tagged Na+ channels” value ([1]; overnight incubation with NADH, fluorescent microscopy) is reported as 6.1 fold, the “tolerated concentration range (cell viability)” value (HEK 293 cell (SCN5A)) is reported as 150 to 300 µM and the “tolerated concentration range (dose-dependent cell viability)” value (HEK 293 cell (SCN5A)) is reported as 150 to 300 µmol/L. For the same molecule, the “decrease in Na+ current (peak current)” value [2, 3] was 51% and 55.5%, the “decrease in whole cell peak conductance” value ([2]; 300 μM extracellular, overnight) was 71.4% and the “decrease in peak Na+ current” value [2, 4] was 65.7±6.6% and 74.9%.
